Laboratory results from PMC7224190, “Pharmacological inhibition of PRMT7 links arginine monomethylation to the cellular stress response” (Nature Communications, 2020).

Assays:
Experiment in all cases: biochemical
Parameters in all cases: radiometric methyltransferase selectivity assay with tritiated SAM, per cent activity
Conditions in all cases: read-out: % of control remaining
[1] = molecular target: DOT1L (Homo sapiens, UniProt Q8TEK3)
Description: (§1) The methyltransferase selectivity was assessed at two compound concentrations of 1 and 10 μM by radiometric assays using tritiated-SAM. For methyltransferases: MLL1, MLL3, EZH1 (PRC2), and EZH2 (PRC2), G9a, GLP, SUV39H1, SUV39H2, SUV420H1, SUV420H2, SETD2, SETD8, SETDB1, SETD7, PRMT1, PRMT3, PRMT4, PRMT5/ MEP50 complex, PRMT6, PRMT7, PRMT8, PRMT9, PRDM9, SMYD2, SMYD3, DNMT1, and BCDIN3D the incorporation of a tritium-labeled methyl group into biotinylated substrate was monitored using scintillation proximity assay (SPA). Briefly, a 10 μL reaction containing ^3H-SAM and substrate at concentrations close to the apparent Km values for each enzyme (balanced conditions) was prepared. The reactions were quenched with 10 μL of 7.5 M guanidine hydrochloride; 180 μL of 20 mM Tris buffer (pH 8.0) were added, and the mixture was transferred to a 96-well FlashPlate and incubated for 1 h. The counts per minute (CPM) was measured on a TopCount plate reader. The CPM in the absence of compound or enzyme was defined as 100% activity and background (0%), respectively, for each dataset[74]–[76]. Selectivity of SGC8158 against 342 kinases was evaluated in a kinase panel TR-FRET assay at 1 and 0.1 μM compound in duplicates as described before. Briefly, tagged kinases were incubated with compound and staurosporine-based fluorescent probe where the binding was detected using Tb conjugated anti-tag antibody energy transfer to the probe. Excitation wavelength was 337 nm and fluorescent emission signal was measured for Tb (486 nm) and fluorescent probe (BODIPY, 515 nm). Specific and non-specific binding was determined in the absence and presence of unlabeled staurosporine.

[2] = molecular target: T1, G9A (Homo sapiens, UniProt Q96KQ7)
T1 construct: gene EHMT2
T1 sequence (Q96KQ7 1-1210): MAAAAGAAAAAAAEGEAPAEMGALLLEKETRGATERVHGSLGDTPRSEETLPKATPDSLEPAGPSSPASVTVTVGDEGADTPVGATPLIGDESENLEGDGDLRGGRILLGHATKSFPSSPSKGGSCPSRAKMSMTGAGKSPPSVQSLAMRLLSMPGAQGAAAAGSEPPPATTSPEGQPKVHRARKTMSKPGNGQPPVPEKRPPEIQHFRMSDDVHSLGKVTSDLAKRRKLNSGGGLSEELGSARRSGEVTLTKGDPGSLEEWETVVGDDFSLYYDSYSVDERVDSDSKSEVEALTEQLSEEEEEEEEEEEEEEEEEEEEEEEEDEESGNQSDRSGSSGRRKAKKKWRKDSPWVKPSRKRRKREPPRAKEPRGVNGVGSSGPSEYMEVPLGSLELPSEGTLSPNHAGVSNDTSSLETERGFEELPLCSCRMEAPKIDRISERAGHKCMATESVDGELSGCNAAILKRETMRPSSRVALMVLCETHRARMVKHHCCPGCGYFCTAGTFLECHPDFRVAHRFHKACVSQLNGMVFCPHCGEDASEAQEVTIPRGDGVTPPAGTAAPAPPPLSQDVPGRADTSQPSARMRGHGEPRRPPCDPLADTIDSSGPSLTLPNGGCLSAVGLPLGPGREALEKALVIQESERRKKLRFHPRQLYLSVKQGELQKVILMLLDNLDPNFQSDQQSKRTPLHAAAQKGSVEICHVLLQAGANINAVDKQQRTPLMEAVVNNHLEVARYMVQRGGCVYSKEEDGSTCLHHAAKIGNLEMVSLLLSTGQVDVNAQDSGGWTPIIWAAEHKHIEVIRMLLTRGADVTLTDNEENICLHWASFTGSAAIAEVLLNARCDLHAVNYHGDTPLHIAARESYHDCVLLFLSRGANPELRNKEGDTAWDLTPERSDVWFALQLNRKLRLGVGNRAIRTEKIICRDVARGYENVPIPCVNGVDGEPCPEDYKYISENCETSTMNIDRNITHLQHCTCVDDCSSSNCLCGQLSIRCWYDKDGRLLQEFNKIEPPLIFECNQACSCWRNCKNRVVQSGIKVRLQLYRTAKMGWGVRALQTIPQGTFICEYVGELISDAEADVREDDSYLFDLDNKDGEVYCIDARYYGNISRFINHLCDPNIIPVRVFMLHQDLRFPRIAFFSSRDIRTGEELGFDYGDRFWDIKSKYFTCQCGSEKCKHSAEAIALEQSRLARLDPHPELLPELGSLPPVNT
Description: as §1

[3] = molecular target: PRC2-EZH1 (Homo sapiens, UniProt Q92800)
Description: as §1

Sequence of PRC2-EZH1 (Q92800 whole entry): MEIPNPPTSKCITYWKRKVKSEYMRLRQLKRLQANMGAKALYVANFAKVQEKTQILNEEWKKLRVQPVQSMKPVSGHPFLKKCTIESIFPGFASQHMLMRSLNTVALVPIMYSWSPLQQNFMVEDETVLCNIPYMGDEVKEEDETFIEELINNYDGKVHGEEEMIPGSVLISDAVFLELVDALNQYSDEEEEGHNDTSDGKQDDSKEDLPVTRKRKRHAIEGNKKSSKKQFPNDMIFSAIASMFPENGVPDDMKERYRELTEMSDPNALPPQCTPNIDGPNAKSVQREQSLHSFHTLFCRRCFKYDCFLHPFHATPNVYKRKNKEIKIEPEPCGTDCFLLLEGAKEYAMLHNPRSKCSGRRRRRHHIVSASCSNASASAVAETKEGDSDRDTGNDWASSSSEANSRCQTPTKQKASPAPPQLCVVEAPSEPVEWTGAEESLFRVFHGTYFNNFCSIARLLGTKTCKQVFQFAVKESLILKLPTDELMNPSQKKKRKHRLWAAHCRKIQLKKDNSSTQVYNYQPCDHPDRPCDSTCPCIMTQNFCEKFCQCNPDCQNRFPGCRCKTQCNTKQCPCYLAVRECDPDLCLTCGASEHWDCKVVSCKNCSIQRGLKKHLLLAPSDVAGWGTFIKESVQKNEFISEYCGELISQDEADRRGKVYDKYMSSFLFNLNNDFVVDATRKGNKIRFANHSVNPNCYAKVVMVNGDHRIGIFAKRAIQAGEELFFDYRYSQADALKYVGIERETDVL
Sequence of PRC2-EZH1 (O75530 whole entry partner): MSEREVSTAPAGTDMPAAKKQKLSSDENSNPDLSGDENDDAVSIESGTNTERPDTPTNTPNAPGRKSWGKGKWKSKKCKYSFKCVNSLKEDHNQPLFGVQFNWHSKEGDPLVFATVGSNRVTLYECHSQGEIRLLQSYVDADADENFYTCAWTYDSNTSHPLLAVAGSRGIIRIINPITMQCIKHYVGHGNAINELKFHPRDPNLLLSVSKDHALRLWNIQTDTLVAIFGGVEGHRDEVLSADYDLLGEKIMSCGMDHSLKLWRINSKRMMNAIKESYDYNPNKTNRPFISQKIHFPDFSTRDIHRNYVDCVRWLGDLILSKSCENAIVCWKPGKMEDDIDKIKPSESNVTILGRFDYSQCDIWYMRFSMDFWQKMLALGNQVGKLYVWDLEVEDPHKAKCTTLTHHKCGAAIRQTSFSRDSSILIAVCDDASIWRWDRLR
Sequence of PRC2-EZH1 (Q15022 whole entry partner): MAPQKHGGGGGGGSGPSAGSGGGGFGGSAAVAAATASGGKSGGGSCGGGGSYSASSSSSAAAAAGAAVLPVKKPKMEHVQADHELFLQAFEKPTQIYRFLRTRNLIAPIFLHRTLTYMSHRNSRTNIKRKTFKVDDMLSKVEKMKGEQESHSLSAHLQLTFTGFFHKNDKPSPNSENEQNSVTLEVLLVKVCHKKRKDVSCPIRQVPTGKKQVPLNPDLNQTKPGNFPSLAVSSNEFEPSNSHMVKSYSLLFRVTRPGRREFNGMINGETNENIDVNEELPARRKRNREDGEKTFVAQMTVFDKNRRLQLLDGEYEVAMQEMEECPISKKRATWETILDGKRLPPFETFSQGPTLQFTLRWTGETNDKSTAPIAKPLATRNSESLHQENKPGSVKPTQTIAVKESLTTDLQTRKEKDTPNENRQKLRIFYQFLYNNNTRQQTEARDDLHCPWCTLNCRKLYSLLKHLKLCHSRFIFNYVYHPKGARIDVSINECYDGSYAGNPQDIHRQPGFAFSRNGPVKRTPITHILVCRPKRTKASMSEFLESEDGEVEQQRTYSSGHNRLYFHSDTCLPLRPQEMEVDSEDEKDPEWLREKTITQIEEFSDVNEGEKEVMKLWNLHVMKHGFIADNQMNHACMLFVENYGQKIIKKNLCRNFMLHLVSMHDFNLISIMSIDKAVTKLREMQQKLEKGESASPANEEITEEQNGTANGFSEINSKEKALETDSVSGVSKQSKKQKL
Sequence of DOT1L (Q8TEK3 whole entry): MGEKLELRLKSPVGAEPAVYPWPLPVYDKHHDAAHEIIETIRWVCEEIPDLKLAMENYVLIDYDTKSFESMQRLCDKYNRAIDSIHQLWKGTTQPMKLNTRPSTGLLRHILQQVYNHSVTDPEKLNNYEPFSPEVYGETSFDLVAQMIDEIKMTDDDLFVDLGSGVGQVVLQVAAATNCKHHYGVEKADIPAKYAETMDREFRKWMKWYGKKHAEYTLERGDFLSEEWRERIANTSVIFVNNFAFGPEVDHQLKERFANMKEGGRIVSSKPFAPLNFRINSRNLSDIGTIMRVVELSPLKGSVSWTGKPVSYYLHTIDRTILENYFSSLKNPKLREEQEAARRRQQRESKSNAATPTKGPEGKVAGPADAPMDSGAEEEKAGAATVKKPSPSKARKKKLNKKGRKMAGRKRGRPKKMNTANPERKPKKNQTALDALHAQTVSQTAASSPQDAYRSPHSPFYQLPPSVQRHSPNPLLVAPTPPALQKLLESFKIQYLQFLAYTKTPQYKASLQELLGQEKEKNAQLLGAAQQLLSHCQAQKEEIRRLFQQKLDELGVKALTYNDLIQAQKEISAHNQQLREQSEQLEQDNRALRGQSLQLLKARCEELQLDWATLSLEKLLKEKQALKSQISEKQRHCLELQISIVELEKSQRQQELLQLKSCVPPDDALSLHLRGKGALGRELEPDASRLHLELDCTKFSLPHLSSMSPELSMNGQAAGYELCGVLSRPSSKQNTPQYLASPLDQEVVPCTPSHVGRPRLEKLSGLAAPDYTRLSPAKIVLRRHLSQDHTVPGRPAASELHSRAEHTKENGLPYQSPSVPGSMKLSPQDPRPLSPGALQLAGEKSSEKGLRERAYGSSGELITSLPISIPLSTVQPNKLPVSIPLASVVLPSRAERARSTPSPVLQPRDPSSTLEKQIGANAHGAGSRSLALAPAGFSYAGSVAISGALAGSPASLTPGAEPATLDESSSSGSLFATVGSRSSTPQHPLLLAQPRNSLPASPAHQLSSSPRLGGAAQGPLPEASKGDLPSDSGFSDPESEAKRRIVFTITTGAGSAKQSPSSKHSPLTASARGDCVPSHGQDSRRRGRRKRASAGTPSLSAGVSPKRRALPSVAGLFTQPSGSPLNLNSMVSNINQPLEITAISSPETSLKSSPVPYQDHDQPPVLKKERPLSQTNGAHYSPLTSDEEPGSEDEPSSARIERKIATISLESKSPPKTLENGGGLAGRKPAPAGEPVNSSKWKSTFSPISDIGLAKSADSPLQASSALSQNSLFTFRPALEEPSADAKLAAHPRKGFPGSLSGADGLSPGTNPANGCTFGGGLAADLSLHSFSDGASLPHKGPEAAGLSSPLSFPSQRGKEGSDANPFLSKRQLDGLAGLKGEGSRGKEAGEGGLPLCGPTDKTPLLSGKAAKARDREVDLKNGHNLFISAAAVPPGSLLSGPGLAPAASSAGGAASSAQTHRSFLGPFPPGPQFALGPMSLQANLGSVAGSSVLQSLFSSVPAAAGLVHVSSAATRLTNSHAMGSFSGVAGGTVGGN

`CC1(C)O[C@@H]2[C@H](O1)[C@@H](CSCCCCNCc1cccc(-c3ccc(Cl)cc3)c1)O[C@H]2n1cnc2c(N)ncnc21` [SGC8158N] showed a remaining activity at 1 µM [1] of 97%, a remaining activity at 10 µM [1] of 95% and a remaining activity at 1 µM [2] of 99%. The remaining activity at 10 µM [2] was 98%, the remaining activity at 1 µM [3] was 92% and the remaining activity at 10 µM [3] was 93%.

With `Nc1ncnc2c1ncn2[C@@H]1O[C@H](CSCCCCNCc2cccc(-c3ccc(Cl)cc3)c2)[C@@H](O)[C@H]1O` [SGC8158] the remaining activity at 1 µM [1] was 58%, the remaining activity at 10 µM [1] was 13% and the remaining activity at 1 µM [2] was 100%. For the same compound, the remaining activity at 10 µM [2] was 99%, the remaining activity at 1 µM [3] was 106% and the remaining activity at 10 µM [3] was 100%.
